IC50, Papp and efflux ratio data for three compounds are collected here from US20240368163A1, “COMPOUNDS AND METHODS FOR MODULATING SPLICING” (REMIX THERAPEUTICS INC., priority 2021, published 2024).

Each structure is given as a SMILES string.

The subject of one data set is HTT. In words: HiBiT protein abundance assay, HTT. The settings on record: Table 13A, modified K562 cells. Format: cell-based, human. In outline: (§1)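 Tagged-target degradation assay: HiBiT-modified K562 cells treated 24 h with compound, 10 concentrations up to 10 μM final. Following lysis with LgBiT and substrate, luminescence gave normalized abundance; IC50 derived by logistic interpolation at 50%.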

The test system of a further data set is MYB. Briefly: HiBiT protein abundance assay, MYB. Type of data set: cell-based, human. To be noted: Table 13A, modified K562 cells. A digest of the protocol:
as §1

The next data set has as its system Target C. In words: HiBiT protein abundance assay, Target C. To be noted: Table 13A, modified K562 cells. Type of data set: cell-based, human. A digest of the protocol: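 Target tagged with HiBiT by knock-in; 24 h dosing, 10 μM top final in 3-fold steps. IC50 from 4PL fit of normalized luminescence.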
Data set [1] in a line: Transwell assay for membrane efflux and permeability. The settings on record: dog; MDCK-BCRP or MDCKII-MDR1 transwell, test compound 1 μM, 2 hours at 37° C. Type of data set: in vitro ADME, Canine. The source says: Compounds described herein were screened for cell membrane permeability and efflux in a transwell assay using Madin-Darby Canine Kidney (MDCK) cells expressing Breast Cancer Resistance Protein (BCRP) or subclone MDCKII cells expressing Multidrug Resistance Protein 1 (MDR1).
MDCK-BCRP or MDCKII-MDR1 Cells: The Netherlands Cancer Institute, High Glucose Dulbecco's Modified Eagle's Medium (DMEM): Gibco/Thermo Fisher Scientific, Fetal Bovine Serum (FBS): Coming, Hank's Balanced Salt Solution (HBSS) and Trypsin/EDTA: Gibco/Thermo Fisher Scientific, HTS Transwell-96 Well Permeable Supports: Coming Corporation, Millicell Epithelial Volt-Ohm: Millipore, Cellometer® Vision: Nexcelom Bioscience LLC, Infinite 200 PRO microplate reader: Tecan, MTS2/4 orbital shaker: IKA Labortechnik, HEPES/Penicillin/Streptomycin: Solarbio.
MDCK-BCRP or MDCKII-MDR1 cells were seeded to each of the wells of the transwell plate at a density of 1.6×10^6 cells/mL and the plate was incubated for 4-8 days with medium changes every two days. To perform the drug transport assay, cell monolayers were first washed three times with pre-warmed HBSS and then incubated with gentle shaking (150 rpm) for 30 min at 37° C. Stock solutions of test compounds (e.g., exemplary compounds of Formulas (I), (II), and (III)) and control compounds (e.g., metoprolol, prazosin, and/or imatinib) were prepared in DMSO and adjusted to a working solution using HBSS. The final concentration of test compounds was 1 μM with DMSO; 0.5%. The plates were incubated at 37° C. for 2 hours.

In the case of `CN(c1ccc(-c2cc(F)c(-c3cn[nH]c3)c3cn[nH]c23)nn1)[C@@H]1C[C@H]2CC[C@@H](C1)N2` [Compound 147], the IC50 in the data set on HTT (24 hours), with MYB (24 hours) and in the data set on Target C (24 hours) was < 100 nM in each case. Further, the Papp at 2 h, 1 μM in data set [1] was < 2 ×10⁻⁶ cm/s. In data set [1], the efflux ratio at 2 h, 1 μM is > 5.
On to `COc1cc(-c2ccc(-c3ccc(N(C)[C@@H]4C[C@H]5CC[C@@H](C4)N5)nn3)c3[nH]ncc23)ccn1` [Compound 385, (exo)-N-{6-[4-(2-methoxypyridin-4-yl)-1H-indazol-7-yl]pyridazin-3-yl}-N-methyl-8-azabicyclo[3.2.1]octan-3-amine], for which, in data set [1], the Papp at 2 h, 1 μM is < 2 ×10⁻⁶ cm/s and the efflux ratio at 2 h, 1 μM was > 5.
Regarding `CN(c1ccc(-c2ccc(-c3cnn(C)c3)c3cn[nH]c23)nn1)[C@@H]1C[C@H]2CC[C@@H](C1)N2` [Compound 386, (exo)-N-methyl-N-{6-[4-(1-methylpyrazol-4-yl)-1H-indazol-7-yl]pyridazin-3-yl}-8-azabicyclo[3.2.1]octan-3-amine], the IC50 with HTT (Homo sapiens, K562, 24 h) is < 100 nM; in the data set on MYB (Homo sapiens, K562, 24 h), < 100 nM; in the data set on Target C (Homo sapiens, K562, 24 h), < 100 nM. In data set [1], the Papp at 2 h, 1 μM was < 2 ×10⁻⁶ cm/s. Besides, the efflux ratio at 2 h, 1 μM in data set [1] was > 5.
